# Assays:
# H1N1 = assay: Flu vaccine with Mdivi-1, lethal H1N1 challenge; assay type: in vivo, mice
# Protocol: 4 groups of ten mice each (6-8 weeks) were vaccinated intra-nasally with flu vaccine (vaccine group and vaccine+Mdivi-1 (SBP AS-08) group) or saline (No Vaccine group). In day 3, vaccine+Mdivi-1 (SBP AS-08) group and Mdivi-1 only group were administered with 2.5 mg/kg dose of Mdivi-1 (SBP AS-08), while all other groups were administered with saline. In day 60, all groups were administered with a lethal dose of H1N1. FIG. 28A is an individual dot graph showing the weight of mice in each group post lethal H1N1 viral infection. For each time point, dot or a group of dots from left to right represent the sample fo no vaccine, SBP-AS08 only, vaccine only, and vaccine and SBP-AS08, respectively. […] Mice were sacrificed if the weight reached 70% of their original weight or appeared very sick. N=10 per group, *p=0.04, ** p=0.001, ***p=0.0001, ****p<0.0001.
# Mice from each group were also sacrificed on Day 7 post lethal influenza infection.
# [1] = test system: immune cells (GC B cells, memory B cells, non-B cells); assay: Mitochondrial mass of immune cells in vivo after SRBC immunization with SBP-AS08; design: species or system mice
# Protocol: Seven mice each in two group were immunized with SRBC on Day 0 and Day 4. One group on Day 3 and Day 7 were given SBP-A508 at 2.5 mg/kg. GC B cells were MACS and stained with Tomm20 (red) to stain mitochondria and DAPI to stain nucleus on Day 15. Cells were imaged using confocal microscope.
# In another experiment, mice each in two group were immunized with SRBC on Day 0 and Day 5. One group of mice was also injected with SBP-A508 on Day 7 and Day 10. […] Day 15 post immunization, mice were sacrificed and spleens were harvested. Cells were incubated in Mitotracker red dye 200 nM per ml of RPMI for 15 mins at culture conditions. Cells were further stained with surface antibodies B220, CD38, Fas to determine B cells, Germinal Center and non-B cells populations.
# IgG1 memory cells [2] = assay: SRBC immunization Day 0 with SBP-AS08 on day 2, IgG1 memory cells; assay type: in vivo, mice; details: SRBC with SBP-AS08 vs SRBC alone
# Protocol: Seven mice were immunized with SRBC Day 0, and further injected with SBP-AS08 on day 2. Then, serum from immunized mice was incubated with SRBC and stained by anti-mouse IgG1 antibody to detect the SRBC specific IgG1 antibody. FIG. 12A is the graph showing absolute number of IgG1 memory cells in SRBC alone and SRBC with SBP-A508, indicating the increase of IgG1 memory cells in the mice injected with SBP-AS08.
# [3] = test system: mouse pancreatic cancer cells; assay: Neo-antigen vaccine with SBP-AS08 in mouse pancreatic cancer model; assay type: in vivo, mice; details: Kaplan Meier
# Protocol: The effect of Mdivi-1 (SBP-AS08) in boosting immunity can be extrapolated to other diseases related to specific immune response (e.g., cancer, etc.). FIG. 36A is a schematic of an experimental layout to test the effect of Mdivi-1 (SBP-AS08) in mouse cancer model. In this experiment, mouse pancreatic cancer cell line lysate was used as the vaccine. 200,000 mouse pancreatic cancer cells were injected in 10 (C57/B6) mice per group via tail vein. Effectiveness of the vaccine was tested by analyzing the metastasis of the cancer cells from the pancreas to lungs (FIG. 36B). Lungs tissues were collected from group of vaccine and vaccine with SBP-AS08 on Day 22 post injections. Two more groups with no treatment and only SBP-AS08 treatment were also included in the analysis.
# FIG. 37A and FIG. 37B show Kaplan Meier survival curve of mice that are unvaccinated, treated with SBP-AS08 only, treated with vaccine, or treated with vaccine and SBP-AS08.
# IgG1 GC B cells = assay: SRBC immunization of mice with Mdivi-1 treatment (GC and memory B cells); assay type: in vivo
# IgM and IgG1 cells = assay: Confocal imaging of mitochondria organization upon BCR stimulation; assay type: cell-based; details: BCR+Mdivi-1
# SARS-CoV2 specific cells = assay: SARS-CoV2 S1 subunit vaccine with Mdivi-1 (SBP-AS08) in mice; assay type: in vivo
# NP specific B cells = assay: NP-CGG immunization with Mdivi-1 (day 2, 5, 8) and rechallenge on day 61; assay type: in vivo, mice
# Protocol: FIG. 12C is a schematic of an experimental design of multiple injections of Mdivi-1 (SBP-A508) for studying NP-CGG immunization along with or without SBP-A508 treatment. As shown, mice were injected with NP-CGG on day 0, and further injected with SBP-A508 on day 2, Day 5, and Day 8 at a dose of 2.5 mg/kg each. Then, a boost immunization (rechallenge) was given on day 61. Mice were bleed on day 82 for further analysis. FIG. 12D is a bar graph in log scale showing the NP-2 specific antibody production measured by ELISA in control and SBP-AS08 treated group upon rechallenge with NP-CGG in PBS on Day 61. Mice were bleed on Days 0, 60, 68, 75 and 82.
# FIG. 13A depicts an experimental design for studying NP-CGG immunization along with or without Mdivi-1 treatment. Briefly, Mdivi-1 treatments were performed at least three times after immunization (day 2, day 5, and day 8), and the blood samples from the subject were analyzed at 2 months after the immunization. […] Mice were bleed on days 0, 60, 68, 75 and 82.
# Mice were immunized with NP-CGG and treated with Mdivi-1 at least three times after immunization (day 2, day 5, and day 8). Then, a boost immunization (rechallenge) was given on day 61. Mice were bleed on day 82 for further analysis. […] Mice were bleed on days 0, 60, 68, 75 and 82 after immunization with NP-CGG. […] As shown in FIGS. 17A-B, Mdivi-1 treated mice replenished their memory B cell pool.
# SRBC specific antibody = assay: SRBC immunization in older age mice with Mdivi-1; assay type: in vivo; details: 14-24 months old mice; 2.5 mg/kg day 3; day 11
# Protocol: 2 groups of eight mice each (14-24 months old age) were immunized intraperitoneally with sheep red blood cells (SRBC). In day 3, one group (SRBC group) was administered with saline, and another group (SRBC+Mdivi-1 (SBP-AS08)) was administered with 2.5 mg/kg dose of Mdivi-1 (SBP AS-08). FIG. 30B and FIG. 30C show scatter plots of SRBC specific anti-IgM antibody or SRBC specific anti-IgG1 antibody of two groups in day 11 after administration of SRBC, respectively. Each dot represents each individual mice in each group.
# IgG1 memory cells [4] = assay: Effect of Mdivi-1 on IgG1 memory cells formation 6 months post immunization; assay type: in vivo
# [5] = test system: T follicular helper (TFh) cells; assay: T follicular helper (TFh) cells in Mdivi-1 treated mice; assay type: in vivo
# Description: […] Dot plots shown in FIG. 18B show the frequencies of TFh cells. […] Similarly, FIGS. 23A-B show flow plots (FIG. 23A) and graph (FIG. 23B) displaying enrichment of T follicular helper cells in mice treated with Mdivi-1.
# IgG1 memory B cells = assay: SRBC immunization, Mdivi-1 once on Day 3, analysis on day 11 (IgG1 memory and memory precursor cells, antibodies); assay type: in vivo, mice
# Protocol: Mice were immunized with Sheep red blood cells (SRBC) to mount an immune response. One group was treated with Mdivi-1 once at the dose of 2.5 mg/kg on Day 3. Blood samples of all groups were analyzed on day 11 after initial immunization.
# FIGS. 21A-B show increased IgG1 memory cell population upon Mdivi-1 treatment. […] show flow plots showing IgG1 population and gating memory B cells in immunized control and Mdivi-1 treated mice.
# FIG. 22A show two flow plots showing population of SRBC-specific IgG1 memory precursors in control and Mdivi-1 treated group (right upper boxes). FIG. 22B is the graph showing frequencies of IgG1 memory precursors.
# Sera was incubated with SRBC to bind all the SRBC specific antibody, followed by staining SRBCs with anti-IgG1 to determine the SRBC specific IgG1 in control and Mdivi-1 treated group of mice.
# pseudo SARS-CoV2 virus = assay type: cell-based, human
# [6] = test system: plasma cells (CD138+ cells); assay: Plasma cell (PC) differentiation in vitro; assay type: cell-based
# Protocol: Cells were treated either with Etomoxir to prevent fatty acid oxidation or with 2-deoxy-D-glucose (2DG) to […] to see the effect of fatty acid oxidation in plasma cell differentiation.
# [7] = 2.5 mg/kg Day 3 and Day 7, mitotracker red MFI, Day 15
# [8] = injected Day 7 and Day 10, spleen Day 15, Mitotracker red
# [9] = Mdivi-1 two days post immunization
# [10] = single injection 2.5mg/kg Day 3, Day 15
compound,measurement,setting,value
"COc1cc(-n2c(=S)[nH]c3ccccc3c2=O)c(Cl)cc1Cl [Mdivi-1, 3-(2,4-dichloro-5-methoxyphenyl)-2,3-dihydro-2-thioxo-4(1H)-quinazolinone]",protection against fatal influenza infection (event free survival),"H1N1; 2.5 mg/kg day 3 after flu vaccine, lethal H1N1 day 60",boosts the protection
same,disease progression post H1N1 (lung histology),"H1N1; Day 7 post lethal influenza infection, H&E",reduces the disease progression
same,mitochondrial mass of germinal center B cells,[1]; [7],enhances
same,mitochondrial mass of memory B cells,[1]; [7],enhances
same,mitochondrial mass of B cells,[1]; [8],significantly increased
same,mitochondrial mass of non-B cells,[1]; [8],significantly increased
same,absolute number of IgG1 memory cells,IgG1 memory cells [2],increase
same,survival of tumor bearing mice,[3],increases the survival
same,frequencies of GC B cells,"IgG1 GC B cells; Mdivi-1 twice, each 3 days after SRBC, vs control",increased
same,IgG1 memory B cells,IgG1 GC B cells; [9],significant increase
same,longevity of IgG1 memory B cells,IgG1 GC B cells; [9],significant increase
same,mitochondrial mass of IgG1 memory B cells,IgG1 GC B cells; [9],significant increase
same,mitochondrial mass of IgG1 GC B cells,IgG1 GC B cells; Mitotracker green MFI,enhances
same,IgG1 B cell loss through mitochondrial fragmentation and apoptosis,IgG1 GC B cells; SRBC immunization,prevents IgG1 B cell loss
same,survival of IgG1 GC B cells,"IgG1 GC B cells; active caspase-3, flow cytometry",enhances
same,mitochondrial fission in BCR treated cells,IgM and IgG1 cells,prevents the mitochondrial fission
same,efficacy of the vaccine after rechallenge (S1 specific antibody titers in serum),"SARS-CoV2 specific cells; 2.5 mg/kg Day 2 and Day 5, boost day 30, Day 37 and Day 44",enhances the efficacy
same,number of marker-specific B cells,"SARS-CoV2 specific cells; injections Day 2 and Day 5, Day 15, vs vaccine alone",further increased
same,number of SARS-CoV2-specific cells,SARS-CoV2 specific cells; [10],increased
same,number of SARS-CoV2-specific memory B cells,SARS-CoV2 specific cells; [10],increased
same,number of anti-SARS-CoV2 antibody producing cells,SARS-CoV2 specific cells; [10],increased
same,number of splenocytes,SARS-CoV2 specific cells; [10],increased
same,frequency of NP specific B cells,"NP specific B cells; 2 months after immunization, vs control",substantial increase
same,memory B cell pool,NP specific B cells; after rechallenge,replenished
same,number of NP specific IgG1 memory cells,"NP specific B cells; after rechallenge, vs control",significantly increased
same,number of NP specific immune cells,"NP specific B cells; after rechallenge, vs control",significantly increased
same,antigen specific antibody generation after antigen boost,NP specific B cells; rechallenge with NP-CGG in PBS on Day 61,substantially increased
same,mice showing secondary response upon recall,"NP specific B cells; upon recall, control group 33%",100%
same,NP specific antibody production measured by ELISA,NP specific B cells; vs control,increased
same,SRBC specific anti-IgG1 antibody,SRBC specific antibody,substantially increased
same,immune memory formation (IgG1 expressing memory B cells),IgG1 memory cells [4],facilitates immune memory formation
same,frequency of TFh cells,"[5]; FIG. 18B, vs control",substantially increased
same,T follicular helper cells,[5]; FIGS. 23A-B,enrichment
same,PD-1 molecule expression on T follicular helper cells (median fluorescent intensity),[5]; vs nontreated control group,higher
same,IgG1+CD38+ cell population (IgG1 memory B cells),"IgG1 memory B cells; 2.5 mg/kg once on Day 3, day 11",substantially increased
same,frequencies of SRBC-specific IgG1 memory precursors,IgG1 memory B cells; FIG. 19,significantly increased
same,IgG1+CD38+ cell population (memory precursors cells),IgG1 memory B cells; FIGS. 22A-B,substantially increased
same,efficacy of immunization (total IgG and SRBC specific IgG antibodies),IgG1 memory B cells; FIGS. 24A-B,increases the efficacy of immunization
same,% of neutralizing antibody titers (SARs-Cov2 pseudovirus neutralization),pseudo SARS-CoV2 virus,higher
CCOC(=O)[C@@]1(CCCCCCOc2ccc(Cl)cc2)CO1 [Etomoxir],number of CD138+ cells,[6],substantially increased
"O=CC[C@@H](O)[C@H](O)[C@H](O)CO [2DG, 2-deoxy-D-glucose]",number of CD138+ cells,[6],substantially decreased

# From patent publication US20230020401A1, “METABOLIC REPROGRAMMING OF IMMUNE CELLS TO ENHANCE THE EFFICACY OF PROPHYLACTIC AND T[…]” (priority 2019, published 2023)
